# According to patent US9708314B2, “Heterocyclic amide compound” (NISSAN CHEMICAL INDUSTRIES, LTD., priority 2013, dated 2017):
# Assays:
# Assay type in all cases: in vivo
# [1] = tested on: transplanted Oryza sativa; experiment: Test Example 1: effect on crop, application before weed generation in submerged conditions; details: Seventeenth Table; for a: transplanted Oryza sativa (effect on crop grade): Application herbicide amount 320 g/ha; for a (transplanted Oryza sativa) effect on crop grade: application herbicide amount 320 g/ha
# Procedure, shortened: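 Submerged pot test: alluvial soil, 4 cm water, seeds sown mixed, 2.5-leaf rice transplanted; emulsion in water applied to surface day of sowing, dose g/ha; greenhouse 25–30° C.; 3 wk; 0–5 rating.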
# Galium spurium = experiment: Test Example 4: herbicidal effect by application to foliage (diluvial soil, plastic box); details: 320 g/ha; for Q (Galium spurium) herbicidal effect grade: foliage application; for herbicidal effect, Q (Galium spurium): application to foliage
# Procedure, shortened: (§1)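 Read-out is a 0–5 visual grade of herbicidal ratio (5: ≥90%, almost withered; 0: ≤5%) taken three weeks after treatment. Compound was applied as a diluted emulsion to stem and leaf parts of 14-day greenhouse-grown plants (25° C. to 30° C.) at rates expressed as g/ha.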
# [2] = tested on: directly sowed Oryza sativa; experiment: Test Example 3: effect on crop by application to foliage (Wagner pot, water depth 0.1-0.5 cm); details: Nineteenth Table; application to foliage; application herbicide amount 320 g/ha
# Procedure, shortened: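 Visual 0–5 rating of herbicidal ratio, taken 3 weeks after foliar spray of a diluted emulsion formulation at rates expressed as g/ha. Plants had been sown in alluvial soil under 0.1–0.5 cm water and grown 14 days at 25–30 °C under glass before application.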
# [3] = tested on: directly sowed Oryza sativa; experiment: Test Example 4: effect on crop by application to foliage (diluvial soil, plastic box); details: 320 g/ha; for d (directly sowed Oryza sativa) effect on crop grade: foliage application; for effect on crop, d (directly sowed Oryza sativa): application to foliage
# Procedure, shortened: as §1
# Triticum aestivum = experiment: as above; details: 320 g/ha; for e (Triticum aestivum) effect on crop grade: foliage application; for effect on crop, e (Triticum aestivum): application to foliage
# Procedure, shortened: as §1
# Glycine max = experiment: as above; details: 320 g/ha; for c (Glycine max) effect on crop grade: foliage application; for effect on crop, c (Glycine max): application to foliage
# Procedure, shortened: as §1
# Brassica campestris L. = experiment: as above; details: 320 g/ha; for g (Brassica campestris L.) effect on crop grade: foliage application; for effect on crop, g (Brassica campestris L.): application to foliage
# Procedure, shortened: as §1
# Zea mays = experiment: as above; details: 320 g/ha; for b (Zea mays) effect on crop grade: foliage application; for effect on crop, b (Zea mays): application to foliage
# Procedure, shortened: as §1
# [4] = tested on: Beta vulgaris ssp. vulgaris; experiment: as above; details: 320 g/ha; for f (Beta vulgaris ssp. vulgaris) effect on crop grade: foliage application; for effect on crop, f (Beta vulgaris ssp. vulgaris): application to foliage
# Procedure, shortened: as §1
compound,measurement,setting,value
Cn1nnnc1NC(=O)c1ccc(C(F)(F)F)n2c(-c3ccc(F)cc3)nnc12 [2-043],a: transplanted Oryza sativa (effect on crop grade),[1],4 (Herbicidal ratio of 70% or more and less than 90%)
same,Q (Galium spurium) herbicidal effect grade,Galium spurium,4 (Herbicidal ratio of 70% or more and less than 90%)
same,b (effect on crop grade),[2],5 (Herbicidal ratio of 90% or more (almost completely withered))
same,d (directly sowed Oryza sativa) effect on crop grade,[3],4 (Herbicidal ratio of 70% or more and less than 90%)
same,e (Triticum aestivum) effect on crop grade,Triticum aestivum,3 (Herbicidal ratio of 40% or more and less than 70%)
same,c (Glycine max) effect on crop grade,Glycine max,1 (Herbicidal ratio of 5% or more and less than 20%)
same,g (Brassica campestris L.) effect on crop grade,Brassica campestris L.,4 (Herbicidal ratio of 70% or more and less than 90%)
same,b (Zea mays) effect on crop grade,Zea mays,3 (Herbicidal ratio of 40% or more and less than 70%)
same,f (Beta vulgaris ssp. vulgaris) effect on crop grade,[4],5 (Herbicidal ratio of 90% or more (almost completely withered))
CCn1nc2c(C(=O)Nc3nnnn3C)ccc(C(F)(F)F)n2c1=O [6-004],a (transplanted Oryza sativa) effect on crop grade,[1],0 (Herbicidal ratio of 5% or less (almost no effect))
same,"herbicidal effect, Q (Galium spurium)",Galium spurium,4 (Herbicidal ratio of 70% or more and less than 90%)
same,b (effect on crop grade),[2],3 (Herbicidal ratio of 40% or more and less than 70%)
same,"effect on crop, d (directly sowed Oryza sativa)",[3],4 (Herbicidal ratio of 70% or more and less than 90%)
same,"effect on crop, e (Triticum aestivum)",Triticum aestivum,1 (Herbicidal ratio of 5% or more and less than 20%)
same,"effect on crop, c (Glycine max)",Glycine max,0 (Herbicidal ratio of 5% or less (almost no effect))
same,"effect on crop, g (Brassica campestris L.)",Brassica campestris L.,3 (Herbicidal ratio of 40% or more and less than 70%)
same,"effect on crop, b (Zea mays)",Zea mays,0 (Herbicidal ratio of 5% or less (almost no effect))
same,"effect on crop, f (Beta vulgaris ssp. vulgaris)",[4],2 (Herbicidal ratio of 20% or more and less than 40%)
CC(C)Nc1nnc2c(C(=O)Nc3nnnn3C)ccc(C(F)(F)F)n12 [2-066],a: transplanted Oryza sativa (effect on crop grade),[1],3 (Herbicidal ratio of 40% or more and less than 70%)
same,Q (Galium spurium) herbicidal effect grade,Galium spurium,3 (Herbicidal ratio of 40% or more and less than 70%)
same,b (effect on crop grade),[2],3 (Herbicidal ratio of 40% or more and less than 70%)
same,d (directly sowed Oryza sativa) effect on crop grade,[3],4 (Herbicidal ratio of 70% or more and less than 90%)
same,e (Triticum aestivum) effect on crop grade,Triticum aestivum,3 (Herbicidal ratio of 40% or more and less than 70%)
same,c (Glycine max) effect on crop grade,Glycine max,1 (Herbicidal ratio of 5% or more and less than 20%)
same,g (Brassica campestris L.) effect on crop grade,Brassica campestris L.,4 (Herbicidal ratio of 70% or more and less than 90%)
same,b (Zea mays) effect on crop grade,Zea mays,4 (Herbicidal ratio of 70% or more and less than 90%)
same,f (Beta vulgaris ssp. vulgaris) effect on crop grade,[4],5 (Herbicidal ratio of 90% or more (almost completely withered))
CCC(C)Sc1nnc2c(C(=O)Nc3nnnn3C)ccc(C(F)(F)F)n12 (stereo not drawn) [2-072],a: transplanted Oryza sativa (effect on crop grade),[1],3 (Herbicidal ratio of 40% or more and less than 70%)
same,Q (Galium spurium) herbicidal effect grade,Galium spurium,3 (Herbicidal ratio of 40% or more and less than 70%)
same,b (effect on crop grade),[2],1 (Herbicidal ratio of 5% or more and less than 20%)
same,d (directly sowed Oryza sativa) effect on crop grade,[3],4 (Herbicidal ratio of 70% or more and less than 90%)
same,e (Triticum aestivum) effect on crop grade,Triticum aestivum,1 (Herbicidal ratio of 5% or more and less than 20%)
same,c (Glycine max) effect on crop grade,Glycine max,3 (Herbicidal ratio of 40% or more and less than 70%)
same,g (Brassica campestris L.) effect on crop grade,Brassica campestris L.,4 (Herbicidal ratio of 70% or more and less than 90%)
same,b (Zea mays) effect on crop grade,Zea mays,1 (Herbicidal ratio of 5% or more and less than 20%)
same,f (Beta vulgaris ssp. vulgaris) effect on crop grade,[4],5 (Herbicidal ratio of 90% or more (almost completely withered))
Cn1nnnc1NC(=O)c1ccc(C(F)(F)F)n2c(CO)nnc12 [2-108],a (transplanted Oryza sativa) effect on crop grade,[1],0 (Herbicidal ratio of 5% or less (almost no effect))
same,"herbicidal effect, Q (Galium spurium)",Galium spurium,4 (Herbicidal ratio of 70% or more and less than 90%)
same,b (effect on crop grade),[2],4 (Herbicidal ratio of 70% or more and less than 90%)
same,"effect on crop, d (directly sowed Oryza sativa)",[3],4 (Herbicidal ratio of 70% or more and less than 90%)
same,"effect on crop, e (Triticum aestivum)",Triticum aestivum,1 (Herbicidal ratio of 5% or more and less than 20%)
same,"effect on crop, c (Glycine max)",Glycine max,0 (Herbicidal ratio of 5% or less (almost no effect))
same,"effect on crop, g (Brassica campestris L.)",Brassica campestris L.,5 (Herbicidal ratio of 90% or more (almost completely withered))
same,"effect on crop, b (Zea mays)",Zea mays,4 (Herbicidal ratio of 70% or more and less than 90%)
same,"effect on crop, f (Beta vulgaris ssp. vulgaris)",[4],5 (Herbicidal ratio of 90% or more (almost completely withered))
COc1ccc(N(C)c2nnc3c(C(=O)Nc4nnnn4C)ccc(C(F)(F)F)n23)cc1 [2-099],a (transplanted Oryza sativa) effect on crop grade,[1],4 (Herbicidal ratio of 70% or more and less than 90%)
same,"herbicidal effect, Q (Galium spurium)",Galium spurium,4 (Herbicidal ratio of 70% or more and less than 90%)
same,b (effect on crop grade),[2],4 (Herbicidal ratio of 70% or more and less than 90%)
same,"effect on crop, d (directly sowed Oryza sativa)",[3],4 (Herbicidal ratio of 70% or more and less than 90%)
same,"effect on crop, e (Triticum aestivum)",Triticum aestivum,0 (Herbicidal ratio of 5% or less (almost no effect))
same,"effect on crop, c (Glycine max)",Glycine max,0 (Herbicidal ratio of 5% or less (almost no effect))
same,"effect on crop, g (Brassica campestris L.)",Brassica campestris L.,4 (Herbicidal ratio of 70% or more and less than 90%)
same,"effect on crop, b (Zea mays)",Zea mays,3 (Herbicidal ratio of 40% or more and less than 70%)
same,"effect on crop, f (Beta vulgaris ssp. vulgaris)",[4],5 (Herbicidal ratio of 90% or more (almost completely withered))
CSCCc1nnc2c(C(=O)Nc3nnnn3C)ccc(C(F)(F)F)n12 [2-057],a: transplanted Oryza sativa (effect on crop grade),[1],4 (Herbicidal ratio of 70% or more and less than 90%)
same,Q (Galium spurium) herbicidal effect grade,Galium spurium,4 (Herbicidal ratio of 70% or more and less than 90%)
same,b (effect on crop grade),[2],5 (Herbicidal ratio of 90% or more (almost completely withered))
same,d (directly sowed Oryza sativa) effect on crop grade,[3],5 (Herbicidal ratio of 90% or more (almost completely withered))
same,e (Triticum aestivum) effect on crop grade,Triticum aestivum,4 (Herbicidal ratio of 70% or more and less than 90%)
same,c (Glycine max) effect on crop grade,Glycine max,2 (Herbicidal ratio of 20% or more and less than 40%)
same,g (Brassica campestris L.) effect on crop grade,Brassica campestris L.,5 (Herbicidal ratio of 90% or more (almost completely withered))
same,b (Zea mays) effect on crop grade,Zea mays,4 (Herbicidal ratio of 70% or more and less than 90%)
same,f (Beta vulgaris ssp. vulgaris) effect on crop grade,[4],5 (Herbicidal ratio of 90% or more (almost completely withered))
CC#Cc1nnc2c(C(=O)Nc3nnnn3C)ccc(C(F)(F)F)n12 [2-106],a (transplanted Oryza sativa) effect on crop grade,[1],2 (Herbicidal ratio of 20% or more and less than 40%)
same,"herbicidal effect, Q (Galium spurium)",Galium spurium,3 (Herbicidal ratio of 40% or more and less than 70%)
same,b (effect on crop grade),[2],0 (Herbicidal ratio of 5% or less (almost no effect))
same,"effect on crop, d (directly sowed Oryza sativa)",[3],4 (Herbicidal ratio of 70% or more and less than 90%)
same,"effect on crop, e (Triticum aestivum)",Triticum aestivum,0 (Herbicidal ratio of 5% or less (almost no effect))
same,"effect on crop, c (Glycine max)",Glycine max,0 (Herbicidal ratio of 5% or less (almost no effect))
same,"effect on crop, g (Brassica campestris L.)",Brassica campestris L.,3 (Herbicidal ratio of 40% or more and less than 70%)
same,"effect on crop, b (Zea mays)",Zea mays,0 (Herbicidal ratio of 5% or less (almost no effect))
same,"effect on crop, f (Beta vulgaris ssp. vulgaris)",[4],5 (Herbicidal ratio of 90% or more (almost completely withered))
CCCSc1nnc2c(C(=O)Nc3nnnn3C)ccc(C(F)(F)F)n12 [2-068],a: transplanted Oryza sativa (effect on crop grade),[1],5 (Herbicidal ratio of 90% or more (almost completely withered))
same,Q (Galium spurium) herbicidal effect grade,Galium spurium,4 (Herbicidal ratio of 70% or more and less than 90%)
same,b (effect on crop grade),[2],5 (Herbicidal ratio of 90% or more (almost completely withered))
same,d (directly sowed Oryza sativa) effect on crop grade,[3],4 (Herbicidal ratio of 70% or more and less than 90%)
same,e (Triticum aestivum) effect on crop grade,Triticum aestivum,2 (Herbicidal ratio of 20% or more and less than 40%)
same,c (Glycine max) effect on crop grade,Glycine max,3 (Herbicidal ratio of 40% or more and less than 70%)
same,g (Brassica campestris L.) effect on crop grade,Brassica campestris L.,4 (Herbicidal ratio of 70% or more and less than 90%)
same,b (Zea mays) effect on crop grade,Zea mays,5 (Herbicidal ratio of 90% or more (almost completely withered))
same,f (Beta vulgaris ssp. vulgaris) effect on crop grade,[4],5 (Herbicidal ratio of 90% or more (almost completely withered))
